In ChEMBL document CHEMBL3886557, “Compounds as inhibitors of diacylglycerol O-acyltransferase type 1 enzyme” (2016):
pIC50: −log10 of the molar value.

Legend:
[1] = target: T1, Diacylglycerol O-acyltransferase 1 (Mus musculus, UniProt Q9Z2A7); experiment: Inhibition Assay: Â Assay buffer [20 mM HEPES (pH 7.4), 100 mM MgCl2 and 0.04% bovine serum albumin (BSA)] containing 500 uM of enzyme substrate (didecanoyl glycerol) and 7.5 uM radiolabeled acyl-CoA substrate ([14C]decanoyl-CoA) was added to each well of a phospholipid-coated radiometric assay plate.; type: microsomes, Liver
T1 sequence (Q9Z2A7 whole entry): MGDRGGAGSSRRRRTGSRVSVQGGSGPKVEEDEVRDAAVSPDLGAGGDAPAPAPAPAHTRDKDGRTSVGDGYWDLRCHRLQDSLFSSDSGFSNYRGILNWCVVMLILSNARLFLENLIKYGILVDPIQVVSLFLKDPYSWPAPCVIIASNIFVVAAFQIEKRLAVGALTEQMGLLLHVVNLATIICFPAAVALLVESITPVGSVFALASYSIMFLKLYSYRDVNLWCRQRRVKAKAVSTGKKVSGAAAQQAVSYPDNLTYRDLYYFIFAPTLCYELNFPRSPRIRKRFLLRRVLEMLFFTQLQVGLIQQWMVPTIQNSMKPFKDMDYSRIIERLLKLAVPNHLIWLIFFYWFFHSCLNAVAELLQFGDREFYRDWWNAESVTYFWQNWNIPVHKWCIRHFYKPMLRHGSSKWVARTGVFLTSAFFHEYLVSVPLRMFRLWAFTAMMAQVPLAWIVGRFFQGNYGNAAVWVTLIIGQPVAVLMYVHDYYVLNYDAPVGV

[2] = target: T2, Diacylglycerol O-acyltransferase 1 (Homo sapiens, UniProt O75907); type: tissue-based, Liver
T2 sequence (O75907 whole entry): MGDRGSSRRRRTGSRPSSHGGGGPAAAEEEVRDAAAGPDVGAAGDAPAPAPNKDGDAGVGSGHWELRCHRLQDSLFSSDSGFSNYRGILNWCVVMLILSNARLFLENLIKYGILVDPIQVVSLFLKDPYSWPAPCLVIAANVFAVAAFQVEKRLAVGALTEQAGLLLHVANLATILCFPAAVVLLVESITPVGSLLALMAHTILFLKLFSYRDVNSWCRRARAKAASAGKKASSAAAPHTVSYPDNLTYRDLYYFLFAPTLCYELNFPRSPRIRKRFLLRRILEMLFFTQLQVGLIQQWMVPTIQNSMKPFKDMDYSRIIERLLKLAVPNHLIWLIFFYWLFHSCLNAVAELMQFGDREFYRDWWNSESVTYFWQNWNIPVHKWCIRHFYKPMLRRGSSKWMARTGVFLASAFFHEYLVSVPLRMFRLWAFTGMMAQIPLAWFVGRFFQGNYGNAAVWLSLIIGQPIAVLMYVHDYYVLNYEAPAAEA

| pIC50 [1] | pIC50 [2] | SMILES |
| --- | --- | --- |
| > 7.60 | > 8.00 | O=C(O)C[C@H]1CC[C@H](c2ccc(-c3cn4cc(C(=O)NCc5ccc(F)c(Cl)c5)nc4s3)cc2)CC1 |
| > 6.82 | > 8.00 | O=C(O)C[C@H]1CC[C@H](c2ccc(-c3cn4cc(C(=O)Nc5cccc(Cl)c5)nc4s3)cc2)CC1 |
| > 7.12 | > 7.60 | O=C(O)CC1CCC(c2ccc(-c3ccc4nc(C(=O)NCc5c(F)cccc5F)cn4c3)cc2)CC1 (stereo unspecified) |
| > 8.00 | > 8.00 | O=C(O)C[C@H]1CC[C@H](c2ccc(-c3cn4cc(C(=O)NCc5c(Cl)cccc5Cl)nc4s3)cc2)CC1 |
| > 7.30 | > 8.00 | O=C(O)CC1CCC(c2ccc(-c3ccc4nc(C(=O)NCc5c(F)cccc5Cl)cn4c3)cc2)CC1 (stereo unspecified) |
| > 8.00 | > 8.00 | O=C(O)CC1CCC(c2ccc(-c3ccc4nc(C(=O)NCc5c(Cl)cccc5C(F)(F)F)cn4c3)cc2)CC1 (stereo unspecified) |
| > 7.60 | > 8.00 | O=C(O)C[C@H]1CC[C@H](c2ccc(-c3cn4cc(C(=O)NCc5c(F)cccc5Cl)nc4s3)cc2)CC1 |
| > 7.30 | > 8.00 | O=C(O)CC1CCC(c2ccc(-c3ccc4nc(C(=O)NCc5c(Cl)cccc5Cl)cn4c3)cc2)CC1 (stereo unspecified) |
| > 8.00 | > 8.00 | O=C(O)C[C@H]1CC[C@H](c2ccc(-c3cn4cc(C(=O)NCc5c(F)cc(Cl)cc5F)nc4s3)cc2)CC1 |
| > 8.00 | > 8.00 | O=C(O)CC1CCC(c2ccc(-c3ccc4nc(C(=O)NC5(c6cc(F)ccc6F)CC5)cn4c3)cc2)CC1 (stereo unspecified) |
| > 6.70 | > 6.65 | O=C(O)C[C@H]1CC[C@H](c2ccc(-c3cn4cc(C(=O)NCc5ccc(OC(F)(F)F)c(Cl)c5)nc4s3)cc2)CC1 |
| > 7.60 | > 7.60 | O=C(O)C[C@H]1CC[C@H](c2ccc(-c3cn4cc(C(=O)NCc5c(F)cccc5F)nc4s3)cc2)CC1 |
| > 7.00 | > 8.00 | O=C(O)CC1CCC(c2ccc(-c3cn4cc(C(=O)Nc5ccc(F)c(Cl)c5)nc4s3)cc2)CC1 (stereo unspecified) |
